Values of other authors, collected in patent US20050143363A1, “Method for subretinal administration of therapeutics including steroids; method for localizing pharmacodynamic action at the choroid of the retina; and related methods for treatment and/or prevention of retinal diseases” (InnoRx, Inc., priority 2002, published 2005).

Settings: 72 hours after injection into the vitreous; animal studies

C[C@]12C=CC(=O)C=C1CC[C@H]1[C@@H]3C[C@@H](O)[C@](O)(C(=O)CO)[C@@]3(C)C[C@H](O)[C@@]12F [triamcinolone]
share of the triamcinolone present in the vitreous that was associated with other tissues including the retina, pigment epithelium, and sclera: less than 1%
